The record followed here is US8399502B2, “Analogs of indole-3-carbinol and their use as agents against infection” (priority 2008, dated 2013).

Molecules are shown by their SMILES. In brackets after ≈: the same amount, converted by molar mass.

In the first experiment the test system is Francisella tularensis (FT; Gram-negative). The experiment can be described thus: microbe, parasite or virus in culture. Format: cell-based. The conditions noted are these: read-out: MIC FT.
Take `CC/N=C(/NCCCOc1c2[nH]c3ccc(Cl)cc3c2cc2c1[nH]c1ccc(Cl)cc12)NCCCN(C)C`: the MIC is 1 µg/mL (≈ 1.81 µM).

With `Cc1c2[nH]c3ccc(F)cc3c2cc2c1[nH]c1ccc(F)cc12`, the MIC was found to be 0.5 µg/mL (≈ 1.63 µM).

`Clc1ccc2[nH]c3c(OCCCNCc4ncc[nH]4)c4[nH]c5ccc(Cl)cc5c4cc3c2c1`: the MIC was 1 µg/mL (≈ 2.09 µM).

As for `OC1CCN(CCOc2c3[nH]c4ccc(F)cc4c3cc3c2[nH]c2ccc(F)cc23)CC1`, the MIC was determined as 0.5 µg/mL (≈ 1.15 µM).

For the compound `CN(C)CCOc1c2[nH]c3cc(F)ccc3c2cc2c1[nH]c1cc(F)ccc12`, the MIC was found to be 0.5 µg/mL (≈ 1.32 µM).

Turning to `CC/N=C(/NCCCOc1c2[nH]c3ccc(F)cc3c2cc2c1[nH]c1ccc(F)cc12)NCCCN(C)C`, the MIC was at most 0.25 µg/mL.

For `FC(F)(F)c1c2[nH]c3ccccc3c2cc2c1[nH]c1ccccc12`, the MIC turned out to be 0.5 µg/mL (≈ 1.54 µM).

`N=C(N)NCCCOc1c2[nH]c3ccc(F)cc3c2cc2c1[nH]c1ccc(F)cc12` [drawing 232]: the MIC was determined as 1 µg/mL (≈ 2.45 µM).

For `Clc1ccc2[nH]c3c(OCC4CCNCC4)c4[nH]c5ccc(Cl)cc5c4cc3c2c1`, the MIC stood at 0.5 µg/mL (≈ 1.14 µM).

A further experiment deals with Bacillus anthracis (BA; Gram-positive). The experiment can be described thus: microbe, parasite or virus in culture. Format: cell-based. The settings on record: read-out: MIC BA.
In the case of `CC/N=C(/NCCCOc1c2[nH]c3ccc(Cl)cc3c2cc2c1[nH]c1ccc(Cl)cc12)NCCCN(C)C`, the MIC is at most 0.25 µg/mL.

As for `Cc1c2[nH]c3ccc(F)cc3c2cc2c1[nH]c1ccc(F)cc12`, the MIC is 0.5 µg/mL (≈ 1.63 µM).

For `Clc1ccc2[nH]c3c(OCCCNCc4ncc[nH]4)c4[nH]c5ccc(Cl)cc5c4cc3c2c1`, the MIC amounted to 1 µg/mL (≈ 2.09 µM).

Take `OC1CCN(CCOc2c3[nH]c4ccc(F)cc4c3cc3c2[nH]c2ccc(F)cc23)CC1`: the MIC was determined as 0.5 µg/mL (≈ 1.15 µM).

In the case of `CN(C)CCOc1c2[nH]c3cc(F)ccc3c2cc2c1[nH]c1cc(F)ccc12`, the MIC was found to be 1 µg/mL (≈ 2.64 µM).

Regarding `CC/N=C(/NCCCOc1c2[nH]c3ccc(F)cc3c2cc2c1[nH]c1ccc(F)cc12)NCCCN(C)C`, the MIC is at most 0.25 µg/mL.

As to `FC(F)(F)c1c2[nH]c3ccccc3c2cc2c1[nH]c1ccccc12`, the MIC amounted to 1 µg/mL (≈ 3.08 µM).

Take `N=C(N)NCCCOc1c2[nH]c3ccc(F)cc3c2cc2c1[nH]c1ccc(F)cc12` [drawing 232]: the MIC amounted to 0.5 µg/mL (≈ 1.23 µM).

With `Clc1ccc2[nH]c3c(OCC4CCNCC4)c4[nH]c5ccc(Cl)cc5c4cc3c2c1`, the MIC came to 0.5 µg/mL (≈ 1.14 µM).

In another experiment the test system is Yersinia pestis (YP; Gram-negative). The experiment can be described thus: microbe, parasite or virus in culture. Format: cell-based. The settings on record: read-out: MIC YP.
As to `CC/N=C(/NCCCOc1c2[nH]c3ccc(Cl)cc3c2cc2c1[nH]c1ccc(Cl)cc12)NCCCN(C)C`, the MIC came out at 1 µg/mL (≈ 1.81 µM).

Regarding `Cc1c2[nH]c3ccc(F)cc3c2cc2c1[nH]c1ccc(F)cc12`, the MIC was above 16 µg/mL.

`Clc1ccc2[nH]c3c(OCCCNCc4ncc[nH]4)c4[nH]c5ccc(Cl)cc5c4cc3c2c1`: the MIC was found to be 2 µg/mL (≈ 4.18 µM).

With `OC1CCN(CCOc2c3[nH]c4ccc(F)cc4c3cc3c2[nH]c2ccc(F)cc23)CC1`, the MIC came out at 4 µg/mL (≈ 9.19 µM).

Take `CN(C)CCOc1c2[nH]c3cc(F)ccc3c2cc2c1[nH]c1cc(F)ccc12`: the MIC was above 8 µg/mL.

Turning to `CC/N=C(/NCCCOc1c2[nH]c3ccc(F)cc3c2cc2c1[nH]c1ccc(F)cc12)NCCCN(C)C`, the MIC came to 4 µg/mL (≈ 7.68 µM).

Turning to `FC(F)(F)c1c2[nH]c3ccccc3c2cc2c1[nH]c1ccccc12`, the MIC is above 16 µg/mL.

For `N=C(N)NCCCOc1c2[nH]c3ccc(F)cc3c2cc2c1[nH]c1ccc(F)cc12` [drawing 232], the MIC is 8 µg/mL (≈ 19.6 µM).

Consider `Clc1ccc2[nH]c3c(OCC4CCNCC4)c4[nH]c5ccc(Cl)cc5c4cc3c2c1`, for which the MIC worked out at 2 µg/mL (≈ 4.56 µM).

For a further experiment, the system named is Brucella abortus (BAB; Gram-negative). The experiment in a line: microbe, parasite or virus in culture. The conditions noted are these: read-out: MIC BAB. Format: cell-based.
As for `CC/N=C(/NCCCOc1c2[nH]c3ccc(Cl)cc3c2cc2c1[nH]c1ccc(Cl)cc12)NCCCN(C)C`, the MIC came to 1 µg/mL (≈ 1.81 µM).

As for `Cc1c2[nH]c3ccc(F)cc3c2cc2c1[nH]c1ccc(F)cc12`, the MIC was found to be 1 µg/mL (≈ 3.26 µM).

On to `Clc1ccc2[nH]c3c(OCCCNCc4ncc[nH]4)c4[nH]c5ccc(Cl)cc5c4cc3c2c1`, for which the MIC worked out at 0.5 µg/mL (≈ 1.05 µM).

For `OC1CCN(CCOc2c3[nH]c4ccc(F)cc4c3cc3c2[nH]c2ccc(F)cc23)CC1`, the MIC stood at 1 µg/mL (≈ 2.3 µM).

In the case of `CN(C)CCOc1c2[nH]c3cc(F)ccc3c2cc2c1[nH]c1cc(F)ccc12`, the MIC is 0.5 µg/mL (≈ 1.32 µM).

`CC/N=C(/NCCCOc1c2[nH]c3ccc(F)cc3c2cc2c1[nH]c1ccc(F)cc12)NCCCN(C)C`: the MIC worked out at 0.5 µg/mL (≈ 0.96 µM).

Take `FC(F)(F)c1c2[nH]c3ccccc3c2cc2c1[nH]c1ccccc12`: the MIC was 2 µg/mL (≈ 6.17 µM).

In the case of `N=C(N)NCCCOc1c2[nH]c3ccc(F)cc3c2cc2c1[nH]c1ccc(F)cc12` [drawing 232], the MIC is 0.25 µg/mL (≈ 0.614 µM).

Regarding `Clc1ccc2[nH]c3c(OCC4CCNCC4)c4[nH]c5ccc(Cl)cc5c4cc3c2c1`, the MIC is at most 0.25 µg/mL.

The next experiment deals with Burkholderia mallei (BM; Gram-negative). The experiment in a line: microbe, parasite or virus in culture. Format: cell-based. The conditions noted are these: read-out: MIC BM.
Turning to `CC/N=C(/NCCCOc1c2[nH]c3ccc(Cl)cc3c2cc2c1[nH]c1ccc(Cl)cc12)NCCCN(C)C`, the MIC was determined as 4 µg/mL (≈ 7.23 µM).

As to `Cc1c2[nH]c3ccc(F)cc3c2cc2c1[nH]c1ccc(F)cc12`, the MIC was above 16 µg/mL.

Turning to `Clc1ccc2[nH]c3c(OCCCNCc4ncc[nH]4)c4[nH]c5ccc(Cl)cc5c4cc3c2c1`, the MIC is above 8 µg/mL.

As for `OC1CCN(CCOc2c3[nH]c4ccc(F)cc4c3cc3c2[nH]c2ccc(F)cc23)CC1`, the MIC stood at 8 µg/mL (≈ 18.4 µM).

Take `CN(C)CCOc1c2[nH]c3cc(F)ccc3c2cc2c1[nH]c1cc(F)ccc12`: the MIC was above 8 µg/mL.

In the case of `CC/N=C(/NCCCOc1c2[nH]c3ccc(F)cc3c2cc2c1[nH]c1ccc(F)cc12)NCCCN(C)C`, the MIC is 4 µg/mL (≈ 7.68 µM).

Consider `FC(F)(F)c1c2[nH]c3ccccc3c2cc2c1[nH]c1ccccc12`, for which the MIC is above 16 µg/mL.

`N=C(N)NCCCOc1c2[nH]c3ccc(F)cc3c2cc2c1[nH]c1ccc(F)cc12` [drawing 232]: the MIC was determined as 2 µg/mL (≈ 4.91 µM).

Turning to `Clc1ccc2[nH]c3c(OCC4CCNCC4)c4[nH]c5ccc(Cl)cc5c4cc3c2c1`, the MIC amounted to 8 µg/mL (≈ 18.2 µM).

The next experiment concerns Burkholderia pseudomallei (BP; Gram-negative). The experiment can be described thus: microbe, parasite or virus in culture. The class given is cell-based. The conditions noted are these: read-out: MIC BP.
Turning to `CC/N=C(/NCCCOc1c2[nH]c3ccc(Cl)cc3c2cc2c1[nH]c1ccc(Cl)cc12)NCCCN(C)C`, the MIC is 4 µg/mL (≈ 7.23 µM).

Regarding `Cc1c2[nH]c3ccc(F)cc3c2cc2c1[nH]c1ccc(F)cc12`, the MIC is above 16 µg/mL.

Consider `Clc1ccc2[nH]c3c(OCCCNCc4ncc[nH]4)c4[nH]c5ccc(Cl)cc5c4cc3c2c1`, for which the MIC was above 8 µg/mL.

For the compound `OC1CCN(CCOc2c3[nH]c4ccc(F)cc4c3cc3c2[nH]c2ccc(F)cc23)CC1`, the MIC was above 8 µg/mL.

As to `CN(C)CCOc1c2[nH]c3cc(F)ccc3c2cc2c1[nH]c1cc(F)ccc12`, the MIC was above 8 µg/mL.

On to `CC/N=C(/NCCCOc1c2[nH]c3ccc(F)cc3c2cc2c1[nH]c1ccc(F)cc12)NCCCN(C)C`, for which the MIC worked out at 8 µg/mL (≈ 15.4 µM).

Turning to `FC(F)(F)c1c2[nH]c3ccccc3c2cc2c1[nH]c1ccccc12`, the MIC was above 16 µg/mL.

For `N=C(N)NCCCOc1c2[nH]c3ccc(F)cc3c2cc2c1[nH]c1ccc(F)cc12` [drawing 232], the MIC turned out to be 4 µg/mL (≈ 9.82 µM).

With `Clc1ccc2[nH]c3c(OCC4CCNCC4)c4[nH]c5ccc(Cl)cc5c4cc3c2c1`, the MIC is above 8 µg/mL.
